Test results taken from US20090143279A1 (priority 2007, published 2009).
Read-outs that look alike come from different tables or passages of the source.

How the values were obtained:
reactive oxygen species = format: cell-based, mouse
mtOXPHOS transcripts = format: cell-based, mouse
[1] = system: mitochondrial membrane potential; format: cell-based, mouse
cytochrome c = format: cell-based, mouse
[2] = system: cellular dehydrogenase activity
nuOXPHOS transcripts = format: cell-based, mouse
OXPHOS gene expression = format: cell-based, mouse
[3] = normalized composite Z-score vs mock-treated (DMSO) wells, Conc 20 μM
[4] = 20 μM, composite Z-score vs DMSO
[5] = Conc 20 μM, normalized score vs mock-treated (DMSO) wells
[6] = composite Z-score vs DMSO, Conc 20 μM

cytochrome c, sequence (P62897 whole entry): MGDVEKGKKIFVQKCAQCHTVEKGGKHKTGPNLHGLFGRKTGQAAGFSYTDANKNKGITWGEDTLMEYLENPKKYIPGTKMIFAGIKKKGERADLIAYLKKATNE

methyl 7-deshydroxypyrogallin-4-carboxylate
ROS (reactive oxygen species; [3]): 0.145 | mitoOX (mtOXPHOS transcripts; [3]): −1.395 | ΔΨm [1, 3]: −1.695 | cyt c (cytochrome c; [3]): 0.133 | MTT [2, 3]: −1.261 | nucOX (nuOXPHOS transcripts; [3]): −1.394 | GE-HTS (OXPHOS gene expression; [3]): −1.502 | Viability (C2C12 myotubes; [3]): −0.873

methylorsellinic acid, ethyl ester
ROS (reactive oxygen species; [3]): −0.293 | mitoOX (mtOXPHOS transcripts; [3]): −0.770 | ΔΨm [1, 3]: −0.478 | cyt c (cytochrome c; [3]): 0.754 | MTT [2, 3]: −0.661 | nucOX (nuOXPHOS transcripts; [3]): −1.040 | GE-HTS (OXPHOS gene expression; [3]): −0.990 | Viability (C2C12 myotubes; [3]): 0.459

muurolladie-3-one
ROS (reactive oxygen species; [3]): −0.490 | mitoOX (mtOXPHOS transcripts; [3]): −0.569 | ΔΨm [1, 3]: 0.063 | cyt c (cytochrome c; [3]): −0.234 | MTT [2, 3]: −1.161 | nucOX (nuOXPHOS transcripts; [3]): −0.745 | GE-HTS (OXPHOS gene expression; [3]): −0.747 | Viability (C2C12 myotubes; [3]): −0.720

phytol
ROS (reactive oxygen species; [3]): 0.940 | mitoOX (mtOXPHOS transcripts; [3]): −0.270 | ΔΨm [1, 3]: −0.233 | cyt c (cytochrome c; [3]): 0.020 | MTT [2, 3]: −0.544 | nucOX (nuOXPHOS transcripts; [3]): −0.098 | GE-HTS (OXPHOS gene expression; [3]): −0.177 | Viability (C2C12 myotubes; [3]): −0.520

polymyxin b sulfate
ROS (reactive oxygen species; [4]): 0.342 | mitoOX (mtOXPHOS transcripts; [4]): −0.341 | ΔΨm [1, 4]: 0.738 | cyt c (cytochrome c; [4]): −0.323 | MTT [2, 4]: −0.522 | nucOX (nuOXPHOS transcripts; [4]): −0.349 | GE-HTS (OXPHOS gene expression; [4]): −0.382 | Viability (C2C12 myotubes; [4]): 0.819

pteryxin
ROS (composite Z-score) (reactive oxygen species; [5]): 1.106 | mitoOX (composite Z-score) (mtOXPHOS transcripts; [5]): −0.108 | ΔΨm (composite Z-score) [1, 5]: 0.300 | cyt c (composite Z-score) (cytochrome c; [5]): 0.711 | MTT (composite Z-score) [2, 5]: −1.515 | nucOX (composite Z-score) (nuOXPHOS transcripts; [5]): −0.097 | GE-HTS (composite Z-score) (OXPHOS gene expression; [5]): −0.101 | Viability (composite Z-score) (C2C12 myotubes; [5]): −0.681

spiramycin
ROS (reactive oxygen species; [6]): 0.379 | mitoOX (mtOXPHOS transcripts; [6]): −0.204 | ΔΨm [1, 6]: −0.686 | cyt c (cytochrome c; [6]): 0.216 | MTT [2, 6]: −0.770 | nucOX (nuOXPHOS transcripts; [6]): −0.867 | GE-HTS (OXPHOS gene expression; [6]): −0.691 | Viability (C2C12 myotubes; [6]): 0.176

theaflavin monogallate
ROS (reactive oxygen species; [3]): −0.820 | mitoOX (mtOXPHOS transcripts; [3]): −0.612 | ΔΨm [1, 3]: −0.581 | cyt c (cytochrome c; [3]): 1.252 | MTT [2, 3]: −0.786 | nucOX (nuOXPHOS transcripts; [3]): −0.017 | GE-HTS (OXPHOS gene expression; [3]): −0.211 | Viability (C2C12 myotubes; [3]): 0.945

totarol acetate
ROS (reactive oxygen species; [6]): 0.452 | mitoOX (mtOXPHOS transcripts; [6]): −0.125 | ΔΨm [1, 6]: −0.556 | cyt c (cytochrome c; [6]): 1.207 | MTT [2, 6]: 0.730 | nucOX (nuOXPHOS transcripts; [6]): 0.830 | GE-HTS (OXPHOS gene expression; [6]): 0.574 | Viability (C2C12 myotubes; [6]): −0.273
